# In patent US20020137929A1, “1 - (3-heterocyclylphenyl) isothiourea, -isourea, -guanidine and -amidine herbicidal agents” (Intellectual Property Department, BASF Aktiengesellschaft, priority 1998, published 2002):
# Experiments:
# [1] = tested on: ABUTH (Velvetleaf); test: Postemergence herbicidal evaluation; type: in vivo, Abutilon theophrasti; conditions: for ABUTH herbicidal rating: postemergence
# Procedure, shortened: (§1)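 Visual 0-9 injury score (stand, vigor, malformation, size, chlorosis, appearance vs untreated) taken four to five weeks post-spray, averaged across repeat tests. Test plants about two weeks old; foliar spray of acetone/water (1:1) with 0.5% surfactant delivering ~0.0156-0.500 kg active/ha.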
# [2] = tested on: IPOHE (Morningglory, Ivyleaf); test: Postemergence herbicidal evaluation; type: in vivo, Ipomoea hederacea; conditions: for IPOHE herbicidal rating: postemergence
# Procedure, shortened: as §1
# [3] = tested on: ZEAMX (Corn, Field); test: Postemergence herbicidal evaluation; type: in vivo, Zea mays; conditions: for ZEAMX herbicidal rating: postemergence
# Procedure, shortened: as §1
# [4] = tested on: CYPIR (Rice Flatsedge); test: Postemergence weed control under flooded paddy conditions; type: in vivo, Cyperus iria; conditions: postemergence weeds
# Procedure, shortened: (§2)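 Containers holding 3–5 cm weeds and rice at 1.5–2.5 leaves are flooded to 1.5–3 cm above soil. Compound in 50/50 v/v aqueous/acetone is then added directly to the water, about 0.0313–0.500 kg/ha. Plants are kept in the greenhouse and rated 0–9 visually at 3–4 weeks.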
# [5] = tested on: ECHCG (Barnyardgrass); test: Preemergence herbicidal evaluation; type: in vivo, Echinochloa crus-galli; conditions: rated 4-5 weeks after treatment
# Procedure, shortened: (§3)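 In this greenhouse assay, monocot and dicot seeds are planted in soil and treated prior to emergence with an aqueous acetone spray (about 0.0156-0.500 kg/ha). Plants are assessed visually against control on a 0-9 scale after 4-5 weeks.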
# [6] = tested on: CYPSE (Flatsedge); test: Preemergence weed control under flooded paddy conditions; type: in vivo, Cyperus serotinus; conditions: rated 3-4 weeks after treatment
# Procedure, shortened: (§4)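 Seeds or propagules sown in silt loam kept flooded 1.5-3 cm; compounds in 50/50 acetone/water pipetted into flood water at about 0.0313 to 0.500 kg/ha. Greenhouse; visual 0-9 rating versus untreated control 3-4 weeks after treatment.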
# [7] = tested on: SETVI (Foxtail, Green); test: Postemergence herbicidal evaluation; type: in vivo, Setaria viridis; conditions: for SETVI herbicidal rating: postemergence
# Procedure, shortened: as §1
# [8] = tested on: CASOB (Sicklepod); test: Preemergence herbicidal evaluation; type: in vivo, Cassia obtusifolia; conditions: rated 4-5 weeks after treatment
# Procedure, shortened: as §3
# [9] = tested on: ECHORC (Watergrass (Calif.)); test: Preemergence weed control under flooded paddy conditions; type: in vivo, Echinochloa oryzoides; conditions: rated 3-4 weeks after treatment
# Procedure, shortened: as §4
# [10] = tested on: AMBEL (Ragweed, Common); test: Preemergence herbicidal evaluation; type: in vivo, Ambrosia artemisifolia; conditions: rated 4-5 weeks after treatment
# Procedure, shortened: as §3
# [11] = tested on: GLXMAW (Soybean, Williams); test: Postemergence herbicidal evaluation; type: in vivo, Glycine max, (L.) Merr. cv Williams; conditions: for GLXMAW herbicidal rating: postemergence
# Procedure, shortened: as §1
# [12] = tested on: ABUTH (Velvetleaf); test: Preemergence herbicidal evaluation; type: in vivo, Abutilon theophrasti; conditions: rated 4-5 weeks after treatment
# Procedure, shortened: as §3
# [13] = tested on: IPOHE (Morningglory, Ivyleaf); test: Preemergence herbicidal evaluation; type: in vivo, Ipomoea hederacea; conditions: rated 4-5 weeks after treatment
# Procedure, shortened: as §3
# [14] = tested on: ECHORC (Watergrass (Calif.)); test: Postemergence weed control under flooded paddy conditions; type: in vivo, Echinochloa oryzoides; conditions: postemergence weeds
# Procedure, shortened: as §2
# [15] = Rate 0.0313 kg/ha, rated 3 to 4 weeks after treatment
# [16] = Rate 0.0625 kg/ha, rated 3 to 4 weeks after treatment
# [17] = Rate 0.1250 kg/ha, rated 3 to 4 weeks after treatment
# [18] = Rate 0.2500 kg/ha, rated 3 to 4 weeks after treatment
# [19] = rate 0.0313 kg/ha, 3-4 weeks after treatment
# [20] = rate 0.0625 kg/ha, 3-4 weeks after treatment
# [21] = rate 0.1250 kg/ha, 3-4 weeks after treatment
# [22] = rate 0.2500 kg/ha, 3-4 weeks after treatment
compound,measurement,setting,value
"CCOC(=O)[C@H](C)N1C(=O)CSC1=Nc1cc(-n2c(=O)cc(C(F)(F)F)n(C)c2=O)c(F)cc1Cl [Compound 76, Ethyl 2-{{2-chloro-5-[3,6-dihydro-3-methyl-2,6-dioxo-4-(trifluoromethyl)-1(2H)-pyrimidinyl]-4-fluorophenyl}imino}-α-methyl-4-oxo-3-thiazolidineacetate, L-]",ABUTH herbicidal rating,[1]; rate 0.0158 kg/ha,9.0
same,ABUTH herbicidal rating,[1]; rate 0.0315 kg/ha,9.0
same,ABUTH herbicidal rating,[1]; rate 0.0630 kg/ha,9.0
same,IPOHE herbicidal rating,[2]; rate 0.0158 kg/ha,9.0
same,IPOHE herbicidal rating,[2]; rate 0.0315 kg/ha,9.0
same,IPOHE herbicidal rating,[2]; rate 0.0630 kg/ha,9.0
same,ZEAMX herbicidal rating,[3]; rate 0.0158 kg/ha,4.5
same,ZEAMX herbicidal rating,[3]; rate 0.0315 kg/ha,6.0
same,ZEAMX herbicidal rating,[3]; rate 0.0630 kg/ha,7.0
same,Herbicidal rating CYPIR,[4]; [15],0.0
same,Herbicidal rating CYPIR,[4]; [16],0.0
same,Herbicidal rating CYPIR,[4]; [17],0.0
same,Herbicidal rating CYPIR,[4]; [18],6.0
same,Preemergence herbicidal rating ECHCG,[5]; rate 0.0156 kg/ha,0.0
same,Preemergence herbicidal rating ECHCG,[5]; rate 0.0313 kg/ha,0.0
same,Preemergence herbicidal rating ECHCG,[5]; rate 0.0625 kg/ha,1.0
same,Preemergence herbicidal rating ECHCG,[5]; rate 0.1250 kg/ha,7.0
same,Preemergence herbicidal rating ECHCG,[5]; rate 0.2500 kg/ha,9.0
same,CYPSE herbicidal effect rating,[6]; 0.0313 kg/ha,2.0
same,CYPSE herbicidal effect rating,[6]; 0.0625 kg/ha,2.0
same,CYPSE herbicidal effect rating,[6]; 0.1250 kg/ha,2.0
same,CYPSE herbicidal effect rating,[6]; 0.2500 kg/ha,3.0
same,SETVI herbicidal rating,[7]; rate 0.0158 kg/ha,1.0
same,SETVI herbicidal rating,[7]; rate 0.0315 kg/ha,2.0
same,SETVI herbicidal rating,[7]; rate 0.0630 kg/ha,9.0
same,Preemergence herbicidal rating CASOB,[8]; rate 0.0156 kg/ha,0.0
same,Preemergence herbicidal rating CASOB,[8]; rate 0.0313 kg/ha,0.0
same,Preemergence herbicidal rating CASOB,[8]; rate 0.0625 kg/ha,0.0
same,Preemergence herbicidal rating CASOB,[8]; rate 0.1250 kg/ha,0.0
same,Preemergence herbicidal rating CASOB,[8]; rate 0.2500 kg/ha,1.0
same,ECHORC herbicidal effect rating,[9]; 0.0313 kg/ha,4.0
same,ECHORC herbicidal effect rating,[9]; 0.0625 kg/ha,7.0
same,ECHORC herbicidal effect rating,[9]; 0.1250 kg/ha,9.0
same,ECHORC herbicidal effect rating,[9]; 0.2500 kg/ha,9.0
same,Preemergence herbicidal rating AMBEL,[10]; rate 0.0156 kg/ha,0.0
same,Preemergence herbicidal rating AMBEL,[10]; rate 0.0313 kg/ha,0.0
same,Preemergence herbicidal rating AMBEL,[10]; rate 0.0625 kg/ha,7.0
same,Preemergence herbicidal rating AMBEL,[10]; rate 0.1250 kg/ha,9.0
same,Preemergence herbicidal rating AMBEL,[10]; rate 0.2500 kg/ha,9.0
same,GLXMAW herbicidal rating,[11]; rate 0.0158 kg/ha,4.0
same,GLXMAW herbicidal rating,[11]; rate 0.0315 kg/ha,5.5
same,GLXMAW herbicidal rating,[11]; rate 0.0630 kg/ha,6.0
same,Preemergence herbicidal rating ABUTH,[12]; rate 0.0156 kg/ha,1.0
same,Preemergence herbicidal rating ABUTH,[12]; rate 0.0313 kg/ha,1.0
same,Preemergence herbicidal rating ABUTH,[12]; rate 0.0625 kg/ha,9.0
same,Preemergence herbicidal rating ABUTH,[12]; rate 0.1250 kg/ha,9.0
same,Preemergence herbicidal rating ABUTH,[12]; rate 0.2500 kg/ha,9.0
same,Preemergence herbicidal rating IPOHE,[13]; rate 0.0156 kg/ha,0.0
same,Preemergence herbicidal rating IPOHE,[13]; rate 0.0313 kg/ha,0.0
same,Preemergence herbicidal rating IPOHE,[13]; rate 0.0625 kg/ha,0.0
same,Preemergence herbicidal rating IPOHE,[13]; rate 0.1250 kg/ha,9.0
same,Preemergence herbicidal rating IPOHE,[13]; rate 0.2500 kg/ha,9.0
same,Herbicidal rating ECHORC,[14]; [15],4.0
same,Herbicidal rating ECHORC,[14]; [16],7.0
same,Herbicidal rating ECHORC,[14]; [17],9.0
same,Herbicidal rating ECHORC,[14]; [18],9.0
"CCOC(=O)CN1C(=O)CSC1=Nc1cc(N2C(=O)C3=C(CCCC3)C2=O)c(F)cc1Cl [Compound 47, Ethyl 2-{[2-chloro-5-(1-cyclohexene-1,2-dicarboximido)-4-fluorophenyl]imino}-4-oxo-3-thiazolidineacetate]",Postemergence herbicidal rating ABUTH,[1]; Rate 0.0156 kg/ha,9.0
same,Postemergence herbicidal rating ABUTH,[1]; Rate 0.0313 kg/ha,9.0
same,Postemergence herbicidal rating ABUTH,[1]; Rate 0.0625 kg/ha,9.0
same,Postemergence herbicidal rating IPOHE,[2]; Rate 0.0156 kg/ha,9.0
same,Postemergence herbicidal rating IPOHE,[2]; Rate 0.0313 kg/ha,9.0
same,Postemergence herbicidal rating IPOHE,[2]; Rate 0.0625 kg/ha,9.0
same,Postemergence herbicidal rating ZEAMX,[3]; Rate 0.0156 kg/ha,5.0
same,Postemergence herbicidal rating ZEAMX,[3]; Rate 0.0313 kg/ha,7.0
same,Postemergence herbicidal rating ZEAMX,[3]; Rate 0.0625 kg/ha,7.5
same,Herbicidal rating CYPIR,[4]; [19],0.0
same,Herbicidal rating CYPIR,[4]; [20],0.0
same,Herbicidal rating CYPIR,[4]; [21],4.0
same,Herbicidal rating CYPIR,[4]; [22],6.0
same,Preemergence herbicidal rating ECHCG,[5]; rate 0.0156 kg/ha,0.0
same,Preemergence herbicidal rating ECHCG,[5]; rate 0.0313 kg/ha,0.0
same,Preemergence herbicidal rating ECHCG,[5]; rate 0.0625 kg/ha,0.0
same,Preemergence herbicidal rating ECHCG,[5]; rate 0.1250 kg/ha,0.0
same,Preemergence herbicidal rating ECHCG,[5]; rate 0.2500 kg/ha,0.0
same,Herbicidal rating CYPSE,[6]; 0.0313 kg/ha,0.0
same,Herbicidal rating CYPSE,[6]; 0.0625 kg/ha,0.0
same,Herbicidal rating CYPSE,[6]; 0.1250 kg/ha,0.0
same,Herbicidal rating CYPSE,[6]; 0.2500 kg/ha,0.0
same,Postemergence herbicidal rating SETVI,[7]; Rate 0.0156 kg/ha,0.0
same,Postemergence herbicidal rating SETVI,[7]; Rate 0.0313 kg/ha,0.0
same,Postemergence herbicidal rating SETVI,[7]; Rate 0.0625 kg/ha,0.0
same,Preemergence herbicidal rating CASOB,[8]; rate 0.0156 kg/ha,0.0
same,Preemergence herbicidal rating CASOB,[8]; rate 0.0313 kg/ha,0.0
same,Preemergence herbicidal rating CASOB,[8]; rate 0.0625 kg/ha,0.0
same,Preemergence herbicidal rating CASOB,[8]; rate 0.1250 kg/ha,0.0
same,Preemergence herbicidal rating CASOB,[8]; rate 0.2500 kg/ha,0.0
same,Herbicidal rating ECHORC,[9]; 0.0313 kg/ha,0.0
same,Herbicidal rating ECHORC,[9]; 0.0625 kg/ha,2.0
same,Herbicidal rating ECHORC,[9]; 0.1250 kg/ha,4.0
same,Herbicidal rating ECHORC,[9]; 0.2500 kg/ha,7.0
same,Preemergence herbicidal rating AMBEL,[10]; rate 0.0156 kg/ha,0.0
same,Preemergence herbicidal rating AMBEL,[10]; rate 0.0313 kg/ha,0.0
same,Preemergence herbicidal rating AMBEL,[10]; rate 0.0625 kg/ha,0.0
same,Preemergence herbicidal rating AMBEL,[10]; rate 0.1250 kg/ha,0.0
same,Preemergence herbicidal rating AMBEL,[10]; rate 0.2500 kg/ha,0.0
same,Postemergence herbicidal rating GLXMAW,[11]; Rate 0.0156 kg/ha,5.5
same,Postemergence herbicidal rating GLXMAW,[11]; Rate 0.0313 kg/ha,7.0
same,Postemergence herbicidal rating GLXMAW,[11]; Rate 0.0625 kg/ha,7.5
same,Preemergence herbicidal rating ABUTH,[12]; rate 0.0156 kg/ha,4.0
same,Preemergence herbicidal rating ABUTH,[12]; rate 0.0313 kg/ha,4.0
same,Preemergence herbicidal rating ABUTH,[12]; rate 0.0625 kg/ha,9.0
same,Preemergence herbicidal rating ABUTH,[12]; rate 0.1250 kg/ha,9.0
same,Preemergence herbicidal rating ABUTH,[12]; rate 0.2500 kg/ha,9.0
same,Preemergence herbicidal rating IPOHE,[13]; rate 0.0156 kg/ha,0.0
same,Preemergence herbicidal rating IPOHE,[13]; rate 0.0313 kg/ha,0.0
same,Preemergence herbicidal rating IPOHE,[13]; rate 0.0625 kg/ha,0.0
same,Preemergence herbicidal rating IPOHE,[13]; rate 0.1250 kg/ha,0.0
same,Preemergence herbicidal rating IPOHE,[13]; rate 0.2500 kg/ha,9.0
same,Herbicidal rating ECHORC,[14]; [19],0.0
same,Herbicidal rating ECHORC,[14]; [20],2.0
same,Herbicidal rating ECHORC,[14]; [21],4.0
same,Herbicidal rating ECHORC,[14]; [22],7.0
